2 compounds from US20260041683A1, “Compounds with Anti-Acinetobacter Baumannii Activity” (University of Kentucky Research Foundation, priority 2022, published 2026) can be followed below.

One data set relates to Ab ATCC 19606 (strain I). In words: MIC determination (double dilution, Mueller-Hinton broth). It is filed as cell-based, Acinetobacter baumannii. To be noted: for MIC: Acinetobacter baumannii, ATCC19606.
The subject of the next data set is K. pneumoniae ATCC 27736. In words: MIC determination. It is filed as cell-based. The following applies: Klebsiella pneumoniae, ATCC27736; Table 5; Mueller-Hinton medium; F = K. pneumoniae ATCC 27736; read-out: MIC strain F.
In a further data set the test system is P. aeruginosa ATCC 27853. In words: MIC determination. To be noted: Pseudomonas aeruginosa, ATCC27853; Table 5; Mueller-Hinton medium; G = P. aeruginosa ATCC 27853; read-out: MIC strain G. The format is cell-based.
For the next data set, the system named is B. anthracis Sterne F32. In words: microbe, parasite or virus in culture. The format is cell-based. To be noted: Bacillus anthracis.
For another data set, the system named is S. enterica ATCC 14028. In words: MIC determination. To be noted: Salmonella enterica, ATCC14028. It is filed as cell-based.
The test system of the next data set is E. cloacae ATCC 13047. In words: MIC determination. The following applies: Enterobacter cloacae, ATCC13047. The format is cell-based.
For data set [1], the system named is S. epidermidis ATCC 12228. In words: MIC determination. The format is cell-based. The following applies: Staphylococcus epidermidis, ATCC12228.
A further data set has as its system S. aureus ATCC 25923. In words: MIC determination. The following applies: Staphylococcus aureus, ATCC25923. The format is cell-based.
For another data set, the system named is Y. pestis CO92. In words: microbe, parasite or virus in culture. It is filed as cell-based. The following applies: Yersinia pestis, CO92, read-out: MIC Y. pestis CO92.
Another data set concerns M. smegmatis. In words: MIC determination. It is filed as cell-based, Mycobacterium smegmatis. To be noted: Mycolicibacterium smegmatis; Table 4.
The test system of another data set is E. coli MC1061. As to the kind of experiment: MIC determination. The format is cell-based. The following applies: Escherichia coli; Table 5; Mueller-Hinton medium; D = E. coli MC1061; read-out: MIC strain D.
The subject of data set [2] is Ab ATCC 19606. In words: Development of resistance, 15-passage MIC assay. The format is cell-based, Acinetobacter baumannii. To be noted: 15 passages at ½×MIC.
For data set [3], the system named is Ab ATCC 19606. As to the kind of experiment: Time-kill curves. The following applies: 1×MIC and 4×MIC, up to 24 h.
The test system of data set [4] is human embryonic kidney cells (HEK-293). As to the kind of experiment: Mammalian cytotoxicity assay (resazurin). To be noted: HEK-293, 32 μg/mL (printed 32 g/mL for 3e), 24 h. In general terms: Alamar Blue is a resazurin reagent that responds to reducing activity.
Data set [5] has as its system biofilm formed by Ab ATCC 19606. As to the kind of experiment: Biofilm prevention assay (crystal violet). The following applies: compound added while biofilm is forming.
Data set [6] has as its system preformed biofilm of Ab ATCC 19606. As to the kind of experiment: Biofilm disruption assay (crystal violet). The following applies: compound added after formation of biofilm.
[7] abbreviates: Table 1, control strain, read-out: MIC Ab ATCC 19606.

SMILES strings stand for the structures. ≈ marks a conversion by molar mass, not a printed value. Entries after “also recorded” stand apart in the source; their conditions may differ. Where two headings read alike, the source gives them in different places.

The term inhibition of growth denotes the drop in the measured response relative to a control, in per cent. Consider `O=C(NNc1ccc(Cl)cc1)c1ccc(F)cn1` [Compound 3e], for which the MIC with Ab ATCC 19606 (strain I) (setting [7]) was 1 mg/L (≈ 3.76 µM); in the data set on Ab ATCC 19606 (strain I) (Table 5, Mueller-Hinton medium, I = A. baumannii ATCC 19606, read-out: MIC strain I), 1 mg/L (≈ 3.76 µM); in the data set on K. pneumoniae ATCC 27736, 64 mg/L (≈ 241 µM); with P. aeruginosa ATCC 27853, more than 64 mg/L; in the data set on B. anthracis Sterne F32 (STERNEF32, read-out: MIC B. anthracis Sterne F32), more than 16 mg/L; with B. anthracis Sterne F32 (STERNEF32, read-out: MIC strain A), more than 64 mg/L. For the same compound, the MIC is 8 mg/L (≈ 30.1 µM) in the data set with S. enterica ATCC 14028 (Table 4, read-out: MIC S. enterica ATCC 14028); 64 mg/L (≈ 241 µM) with S. enterica ATCC 14028 (Table 5, Mueller-Hinton medium, H = S. enterica ATCC 14028, read-out: MIC strain H); 4 mg/L (≈ 15.1 µM) in the data set with E. cloacae ATCC 13047 (Table 4, read-out: MIC E. cloacae ATCC 13047); 16 mg/L (≈ 60.2 µM) in the data set on E. cloacae ATCC 13047 (Table 5, Mueller-Hinton medium, E = E. cloacae ATCC 13047, read-out: MIC strain E); more than 16 mg/L in data set [1] (Table 4, read-out: MIC S. epidermidis ATCC 12228); more than 64 mg/L in data set [1] (Table 5, Mueller-Hinton medium, C = S. epidermidis ATCC 12228, read-out: MIC strain C). In addition, the MIC in the data set with S. aureus ATCC 25923 (Table 4, read-out: MIC S. Aureus ATCC 25923) is more than 16 mg/L; in the data set with S. aureus ATCC 25923 (Table 5, Mueller-Hinton medium, B = S. aureus ATCC 25923, read-out: MIC strain B) it was more than 64 mg/L; with Y. pestis CO92, 8 mg/L (≈ 30.1 µM); with M. smegmatis it was 4 mg/L (≈ 15.1 µM); in the data set with E. coli MC1061 it was 16 mg/L (≈ 60.2 µM). This compound gave an MIC under conditions used to generate biofilm in the data set on Ab ATCC 19606 (strain I) (trypticase soy broth (TSB) medium) of 0.5 mg/L (≈ 1.88 µM). For the same compound, in the data set on Ab ATCC 19606 [2], the “emergence of resistance (in words)” value is recorded as “not observed even after 15 passages; also recorded: Lack of resistance”. In addition, in the data set with Ab ATCC 19606 [3], the “bacteriostatic or bactericidal (time-kill)” value is “bacteriostatic”. In data set [4], this compound gave an inhibition of growth of 17%. For the same compound, the “effect on biofilm formation (prevention)” value in [5] is recorded as “biofilm formation was abolished at concentrations above MIC; also recorded: inhibited biofilm formation”. In addition, the “effect on preformed biofilm (disruption)” value in data set [6] is “did not disrupt a preformed Ab biofilm; also recorded: did not disrupt the preformed biofilm”.

For `O=C(NNc1cccc(F)c1)c1cnccn1` [Compound 9a], the MIC with Ab ATCC 19606 (strain I) (setting [7]) is 0.5 mg/L (≈ 2.15 µM).
